# Measured values: patent US8940936B2, “Aryloxy phenoxy acrylic compound having HIF-1 inhibition activity, method for preparing same, and pharmaceutical composition containing same as an active ingredient” (Korea Research Institute of Bioscience and Biotechnology, priority 2010, dated 2015)
# Several values for one entry are separate records, joined by “and”; a condition that tells them apart may be missing. Identical values can stand only once.
# Tests used:
# [1] = Mouse weight changes and symptoms, intraperitoneal administration (B16F10 metastasis experiment); format: in vivo; conditions: for Mouse weight changes (%): ip, Example 1 20 mg/kg/day, topotecan 2 mg/kg/2 day
# Experimental: (§1) Particularly, the experimental group composed of 6 female mice (C57BL) at 6 weeks was transplanted with B16F10 melanoma cell line. After the cancer cells were grown, the mice were treated with the compound of formula 1 via intraperitoneal injection at the dose of […] every day for 12 days. Inhibition of angiogenesis and the tumor growth were observed. In the meantime, the control group was treated with purified water every day. The comparative group was treated with topotecan at the dose of 2 mg/kg once every other day. Weight changes and cancer metastasis were measured and the results are shown in Table 9, Table 10, and FIG. 10.
# [2] = test system: B16F10 melanoma cell line; test: Cancer metastasis inhibition activity, B16F10 melanoma lung colonies in C57BL mice; format: in vivo, mouse; conditions: Example 1 20 mg/kg/day, topotecan 2 mg/kg/2 day; for Metastasis colony number: day 12, ip; for Metastasis inhibition rate (%): day 12, vs control
# Experimental: as §1
# As shown in Table 10 and FIG. 10, the mice were sacrificed on the last day of experiment (day 12) and then cancer colonies in lung were counted by the naked eye.
# [3] = test system: human rectal cancer cell line HCT116; test: In vivo anticancer activity, intravenous injection, HCT116 rectal cancer in nude mice; parameters: species or system mouse; conditions: Example 1 30 mg/kg/day, topotecan 2 mg/kg/day; for Tumor volume changes (mm^3): iv; for Inhibition rate (%) of tumor volume: vs control
# Experimental: To evaluate the inhibition effect of the compound prepared in example 1 administered via intravenous injection on the growth of rectal cancer, in vivo anticancer activity in mouse was measured. Particularly, nude-mice were grouped for experimental and control groups (5 mice per group). Changes in body weight, tumor volume, and tumor weight were measured to evaluate in vivo anticancer activity.
# Female nude mice at 6 weeks (BALB/c nu/nu, Charles River) were raised in a germ-free facility where temperature and humidity were maintained at proper levels during the whole experimental period. After anesthetizing each mouse, the human rectal cancer cell line HCT116 was transplanted in rectal tissues at the density of 4×10^7 cells/mouse, and then the opened rectum was sealed with surgical clips. After transplanting the rectal cancer cell line, the tumor volume was measured with calipers. When the tumor volume reached 54.5 mm^3, the compound of the present invention prepared in example 1 was treated thereto. Particularly, for the experimental group, the compound of example 1 was dissolved in the solvent composed of saline (80%), DMAC (10%), and tween 80 (10%), which is indicated as ‘solvent A’ hereinafter, at the concentration of 30 mg/kg. […] The control was treated with the solvent A only without the compound once a day via oral administration at the dose of 15 ml/kg. The comparative group was treated with the solvent A containing topotecan (2 mg/kg) via intravenous injection once a day at the dose of 15 ml/kg. The weight and the tumor volume were measured once a day on day 0, 2, 3, 4, 5, 6, and 8.
# Tumor volume was calculated by the following mathematical formula 1. To investigate the toxicity according to the repeated intravenous administration of the compound of example 1, mouse weight changes were observed and presented in Table 3. Inhibition rate (%) in Table 4 was calculated by the following mathematical formula 2, which indicates the inhibition of tumor growth by the compound presented by %. Tumor Volume(mm^3)=(major axis length of tumor cells, mm)×(minor axis length of tumor cells, mm)^2×0.5 [Mathematical Formula 1] Inhibition Rate (%)=[(Tumor Volume of Control−Tumor Volume of Experimental Group)/(Tumor Volume of Control)]×100 [Mathematical Formula 2]
# [4] = test system: B16F10 melanoma cell line; test: Tumor growth, B16F10 melanoma in C57BL mice, intraperitoneal administration; format: in vivo, mouse; conditions: Example 1 20 mg/kg/day, topotecan 2 mg/kg/2 day; for Tumor volume changes (mm^3): ip; for Inhibition rate (%) of tumor volume: vs control
# Experimental: (§2) Particularly, the experimental group composed of 5 female mice (C57BL) at 6 weeks was transplanted with B16F10 melanoma cell line. After the cancer cells were grown, the mice were treated with the compound of formula 1 via intraperitoneal injection at the dose of […] for 5 days. Inhibition of angiogenesis and the tumor growth were observed. In the meantime, the control group was treated with the mixed solution comprising 10% DMAC, 10% cremophor and 80% buffer (pH 10) every day. The comparative group was treated with topotecan at the dose of 2 mg/kg once every other day. Weight changes and the newly generated blood vessels were measured and the results are shown in Table 7, Table 8, FIG. 7, and FIG. 8. The tumor volume shown in Table 8 was calculated by the mathematical formula 1 of experimental example 4 and the inhibition rate was calculated by the mathematical formula 2 of experimental example 4.
# [5] = Mouse weight changes and symptoms, repeated intravenous administration (Caki-1 model); format: in vivo; conditions: for Mouse weight changes (%): iv, Example 1 20 mg/kg/day, topotecan 2 mg/kg/day
# Experimental: Female nude mice at 6 weeks (BALB/c nu/nu, Charles River) were raised in a germ-free facility where temperature and humidity were maintained at proper levels during the whole experimental period. After anesthetizing each mouse, the human kidney cancer cell line Caki-1 was transplanted in kidney tissues at the density of 4×10^7 cells/mouse, and then the opened kidney was sealed with surgical clips. After transplanting the kidney cancer cell line, the tumor volume was measured with calipers. When the tumor volume reached 52.7 mm^3, the compound of the present invention prepared in example 1 was treated thereto. Particularly, for the experimental group, the compound of example 1 was dissolved in the solvent composed of cremophor (10%), DMAC (10%), and pH 10 buffer […], which is indicated as ‘solvent B’ hereinafter, at the concentration of 20 mg/kg. The prepared compound solution was intravenously administered to the experimental group mice once a day at the dose of […]. The control was treated with the solvent B only without the compound once a day via oral administration at the dose of 15 ml/kg. The comparative group was treated with the solvent B containing topotecan (2 mg/kg) via intravenous injection once a day at the dose of 15 ml/kg. The weight and the tumor volume were measured once a day on day 0, 2, 4, 7, 9, 11, and 14.
# Tumor volume was calculated by the mathematical formula 1 of Experimental Example 4. To investigate the toxicity according to the repeated intravenous administration of the compound of example 1, mouse weight changes were observed and presented in Table 5. Inhibition rate (%) in Table 6 was calculated by the mathematical formula 2, which indicates the inhibition of tumor growth by the compound presented by %.
# [6] = Mouse weight changes and symptoms, intraperitoneal administration (B16F10 angiogenesis experiment); format: in vivo; conditions: for Mouse weight changes (%): ip, Example 1 20 mg/kg/day, topotecan 2 mg/kg/2 day
# Experimental: as §2
structure (smiles),measurement,setting,value
"CC[C@@]1(O)C(=O)OCc2c1cc1n(c2=O)Cc2cc3c(CN(C)C)c(O)ccc3nc2-1 [topotecan, reference compound]",Mouse weight changes (%),[1]; day 0,100.0 ± 0.0%
same,Mouse weight changes (%),[1]; day 2,101.0 ± 2.9%
same,Mouse weight changes (%),[1]; day 5,103.5 ± 6.1%
same,Mouse weight changes (%),[1]; day 7,104.0 ± 4.6%
same,Mouse weight changes (%),[1]; day 9,104.3 ± 6.2%
same,Mouse weight changes (%),[1]; day 12,103.7 ± 5.5%
same,Metastasis colony number,[2],148.3 ± 49.4
same,Metastasis inhibition rate (%),[2],51.7%
same,Tumor volume changes (mm^3),[3]; day 0,0.0 ± 0.0 mm^3
same,Tumor volume changes (mm^3),[3]; day 2,16.5 ± 3.9 mm^3
same,Inhibition rate (%) of tumor volume,[3]; day 2,44.9%
same,Tumor volume changes (mm^3),[3]; day 4,44.3 ± 10.1 mm^3
same,Inhibition rate (%) of tumor volume,[3]; day 4,58.1%
same,Tumor volume changes (mm^3),[3]; day 6,69.1 ± 13.2 mm^3
same,Inhibition rate (%) of tumor volume,[3]; day 6,67.9%
same,Tumor volume changes (mm^3),[3]; day 8,93.1 ± 22.3 mm^3
same,Inhibition rate (%) of tumor volume,[3]; day 8,71.4%
same,Tumor volume changes (mm^3),[4]; day 0,0.0 ± 0.0 mm^3
same,Tumor volume changes (mm^3),[4]; day 3,20.9 ± 2.6 mm^3
same,Inhibition rate (%) of tumor volume,[4]; day 3,37.4%
same,Tumor volume changes (mm^3),[4]; day 4,27.1 ± 2.3 mm^3
same,Inhibition rate (%) of tumor volume,[4]; day 4,42.4%
same,Tumor volume changes (mm^3),[4]; day 5,42.9 ± 4.5 mm^3
same,Inhibition rate (%) of tumor volume,[4]; day 5,45.4%
same,Mouse weight changes (%),[5]; day 0,100.0 ± 0.0%
same,Mouse weight changes (%),[5]; day 2,104.7 ± 1.9%
same,Mouse weight changes (%),[5]; day 4,103.8 ± 3.8%
same,Mouse weight changes (%),[5]; day 7,103.4 ± 2.6%
same,Mouse weight changes (%),[5]; day 9,101.8 ± 3.6%
same,Mouse weight changes (%),[5]; day 11,103.0 ± 3.6%
same,Mouse weight changes (%),[5]; day 14,102.9 ± 5.3%
same,Mouse weight changes (%),[6]; day 0,100.0 ± 0.0%
same,Mouse weight changes (%),[6]; day 2,101.2 ± 0.6%
same,Mouse weight changes (%),[6]; day 5,103.7 ± 1.4%
"COC(=O)c1cccc(NC(=O)/C=C/Oc2ccc(C34CC5CC(CC(C5)C3)C4)cc2)c1 [Example 1, (E)-3-[3-(4-Adamantan-1-yl-phenoxy)-acryloylamino]-benzoic acid methyl ester]",body weight on the final day of observation (day 12) compared with control,"[1]; 20 mg/kg ip, C57BL mice",not significantly reduced
same,symptoms during repeated intraperitoneal injection,"[1]; 20 mg/kg ip, C57BL mice, 12 days",no specific symptom was observed
same,Mouse weight changes (%),[1]; day 0,100.0 ± 0.0%
same,Mouse weight changes (%),[1]; day 2,98.7 ± 3.4%
same,Mouse weight changes (%),[1]; day 5,101.2 ± 4.6%
same,Mouse weight changes (%),[1]; day 7,103.4 ± 3.8%
same,Mouse weight changes (%),[1]; day 9,107.6 ± 2.8%
same,Mouse weight changes (%),[1]; day 12,107.6 ± 3.3%
same,Metastasis colony number,[2],207 and 207.0 ± 47.5
same,Metastasis inhibition rate (%),[2],32.5%
same,Tumor volume changes (mm^3),[3]; day 0,0.0 ± 0.0 mm^3
same,Tumor volume changes (mm^3),[3]; day 2,19.4 ± 5.8 mm^3
same,Inhibition rate (%) of tumor volume,[3]; day 2,35.3%
same,Tumor volume changes (mm^3),[3]; day 4,50.6 ± 20.9 mm^3
same,Inhibition rate (%) of tumor volume,[3]; day 4,52.1%
same,Tumor volume changes (mm^3),[3]; day 6,114.3 ± 36.8 mm^3
same,Inhibition rate (%) of tumor volume,[3]; day 6,47.0%
same,Tumor volume changes (mm^3),[3]; day 8,176.8 ± 50.0 mm^3
same,Inhibition rate (%) of tumor volume,[3]; day 8,45.7%
same,Tumor volume changes (mm^3),[4]; day 0,0.0 ± 0.0 mm^3
same,Tumor volume changes (mm^3),[4]; day 3,26.8 ± 3.6 mm^3
same,Inhibition rate (%) of tumor volume,[4]; day 3,19.7%
same,Tumor volume changes (mm^3),[4]; day 4,36.4 ± 4.8 mm^3
same,Inhibition rate (%) of tumor volume,[4]; day 4,22.5%
same,Tumor volume changes (mm^3),[4]; day 5,55.8 ± 5.8 mm^3
same,Inhibition rate (%) of tumor volume,[4]; day 5,28.9%
same,body weight on the final day of observation (day 14) compared with control,"[5]; 20 mg/kg iv, nude mice",not significantly reduced
same,symptoms during repeated intravenous administration,"[5]; 20 mg/kg iv, nude mice",no specific symptom was observed
same,Mouse weight changes (%),[5]; day 0,100.0 ± 0.0%
same,Mouse weight changes (%),[5]; day 2,104.7 ± 1.7%
same,Mouse weight changes (%),[5]; day 4,105.3 ± 2.2%
same,Mouse weight changes (%),[5]; day 7,105.5 ± 3.1%
same,Mouse weight changes (%),[5]; day 9,106.6 ± 4.9%
same,Mouse weight changes (%),[5]; day 11,107.3 ± 6.8%
same,Mouse weight changes (%),[5]; day 14,109.5 ± 6.4%
same,body weight on the final day of observation (day 5) compared with control,"[6]; 20 mg/kg ip, C57BL mice",not significantly reduced
same,symptoms during repeated intraperitoneal injection,"[6]; 20 mg/kg ip, C57BL mice, 5 days",no specific symptom was observed
same,Mouse weight changes (%),[6]; day 0,100.0 ± 0.0%
same,Mouse weight changes (%),[6]; day 2,102.6 ± 1.6%
same,Mouse weight changes (%),[6]; day 5,107.6 ± 3.9%
